This is an account of results in patent EP0416604A2, “PAF-antagonists for the preparation of a medicament, useful for the treatment of heart diseases, caused by diminished beta-receptor-stimulation” (Dr. Karl Thomae GmbH, priority 1989, dated 1991).

The subject of data set [1] is Maus. To be noted: p.o., acute toxicity; cited from earlier work.
Data set [2] relates to cardialen β-Rezeptoren. As to the kind of experiment: LV-dP/dtmax (cardiac contractility) response to isoprenaline in anaesthetised, despinalised rats before and after PAF infusion. Also noted: Steigerung von LV-dP/dtmax durch Isoprenalin (Ansprechbarkeit der cardialen β-Rezeptoren): dose or concentration left out as unconfirmed. The settings on record: for Steigerung LV-dP/dtmax: despinalised rats, n=6, control before PAF. The class given is in vivo, Ratten. On the procedure:
Die neu aufgefundene Wirkung der PAF-Antagonisten wurde beispielsweise an B = 4-(2-Chlorphenyl)-9-methyl-2-[3-(4-morpholinyl)-3-propanon-1-yl]-6H-thieno[3.2-f][1.2.4]triazolo[4.3-a][1.4]-diazepin wie folgt geprüft: Männliche Ratten (Chbb:THOM, ca. 300 g) werden mit Hexobarbital-Natrium (150 mg/kg i.p.) narkotisiert. Die Trachea wird kannuliert und danach werden die Tiere despinalisiert. Die Tiere werden künstlich beatmet und mittels einem Heizkissen auf 37°C gehalten. Zur Messung des linksventrikulärem Drucks wird über die Arteria Carotis in den linken Ventrikel ein Millar Tipmanometer geschoben. Dieses Signal wird elektronisch differentiert und ist als LV-dP/dtmax ein Maß für die Kontraktionskraft des Herzes. Über einen Katheter in der anderen Arteria Carotis wird der arterielle Blutdruck gemessen. Die zu untersuchenden Substanzen werden intravenös über eine Kanüle in der Vena jugularis injiziert.
Isoprenalin (3-100 ng/kg) steigert dosisabhänig LV-dP/dtmax von 300 ± 90 bis 4450 ± 290 mm Hg/s (n=6). Nach einer 45-minütigen Infusion von PAF (50-100 ng/kg/min.) wurde wieder Isoprenalin (3 bis 100 ng/kg) injiziert. […] Dann wurde die Substanz B (10 mg/kg i.v.) verabreicht und nach 10 Minuten wurde wieder Isoprenalin injiziert.

Take `Cc1nnc2n1-c1sc(CCC(=O)N3CCOCC3)cc1C(c1ccccc1Cl)=NC2` [Substanz B, 4-(2-Chlorphenyl)-9-methyl-2-[3-(4-morpholinyl)-3-propanon-1-yl]-6H-thieno[3.2-f][1.2.4]triazolo[4.3-a][1.4]diazepin]: the LD₅₀ in data set [1] is on record as 4600 mg/kg. Further, the “Steigerung von LV-dP/dtmax durch Isoprenalin (Ansprechbarkeit der cardialen β-Rezeptoren)” value in data set [2] (isoprenaline injected again after 10 min, responsiveness fully restored, rats) was “nicht signifikant unterschiedlich von den Kontrollwerten”. Take `CC(C)NCC(O)c1ccc(O)c(O)c1` (stereo not drawn) [Isoprenalin]: the entries for the “Steigerung LV-dP/dtmax” value in data set [2] (Isoprenalin 3 ng/kg i.v. (lower end of dose range 3-100 ng/kg)) and in data set [2] (Isoprenalin 100 ng/kg i.v. (upper end of dose range 3-100 ng/kg)) were 300 ± 90 mm Hg/s and 4450 ± 290 mm Hg/s, respectively.

Take `Cc1nnc2n1-c1sc3c(c1C(c1ccccc1Cl)=NC2)CC(C(=O)N1CCOCC1)C3` (single isomer, unassigned; (-)) [Substanz A, (-)-6-(2-Chlorphenyl)-8,9-dihydro-1-methyl-8-[(4-morpholinyl)carbonyl]-4H,7H-cyclopenta[4.5]thieno[3,2-f][1.2.4]triazolo[4.3-a][1.4]diazepin]: the LD₅₀ in data set [1] is on record as 1960 mg/kg. On to `CCCCCCCCCCCCCCCCOCC(COP(=O)([O-])OCC[N+](C)(C)C)OC(C)=O` (stereo not drawn) [PAF], for which the “Effekte von 3 und 10 ng/kg Isoprenalin (LV-dP/dtmax)” value in data set [2] (after 45 min infusion of PAF 50-100 ng/kg/min, rats) is “nicht beeinflußt”. Further, the “positiv inotrope Wirkung von dem Histamin-2 Agonist Dimaprit” value in data set [2] (effect of PAF on Dimaprit 1-10 mg/kg) was “absolut nicht beeinflußt”. Further, the “positiv inotrope Wirkung von dem Adenylcyclase Aktivator Forskolin” value in data set [2] (effect of PAF on Forskolin 3-20 µg/kg) is “absolut nicht beeinflußt”. For the compound `CCCN(CCC)C(=O)C1Cc2sc3c(c2C1)C(c1ccccc1Cl)=NCc1nnc(C)n1-3` (stereo not drawn) [Substanz C], the LD₅₀ in data set [1] is recorded as 1700 mg/kg.
